In patent US20120148501A1, “RADIOLOGICAL IMAGE ENHANCEMENT WITH TANTALUM CLUSTERS” (priority 2010, published 2012):

What was measured:
[1] = Solubility of purified cluster in saturated aqueous poly(vinyl alcohol) solution; type: physicochemical; conditions: saturated PVA (MW 50k-85k, hydrolyzed), stirred
From the text: The solubility of (Ta6Cl12)Cl2 in an aqueous solution of saturated polyvinyl alcohol) (PVA) was investigated by stirring purified (Ta6Cl12)Cl2 with a solution of saturated PVA (MW-50k-85k, hydrolyzed). […] It appeared that PVA complexes of tantalum clusters were poorly soluble in water.

[2] = Cluster concentration from saturated solutions in a variety of solvents (solubility); type: physicochemical
Protocol: Optical absorbencies at ˜330 and ˜400 nm were used to track cluster concentration in solution. An approximate molar extinction coefficient was determined by dissolving an isolated and purified cluster sample in water and measuring its absorption. […] Early in the study, the highest sample concentration was 30 mM.
Substitutional doping of divalent zinc on trivalent tantalum sites provides for a reduction in the overall cluster charge. A reduction in the overall cluster charge is also attainable by adjusting the redox chemistry of the starting mixture. Target materials include (Ta6Cl12)Cl2, (Ta6Br12)Cl2, […], (Ta6Br12)Br2, (Ta6I12)I2, (Ta6Cl11O)Cl2, (Ta6Cl11S)CI2, and (Ta5ZnCl12)Cl2. […] These compositions were targeted to elicit materials with enhanced solubility or molecular handles that could be leveraged to further enhance the solubility. […] In the table below, EtOH stands for ethyl alcohol, EG stands for ethylene glycol, PS80 stands for Polysorbate 80, DMSO stands for dimethyl sulfoxide, and EDTA stands for ethylenediaminetetraacetic acid.
The solubility of (Ta6Cl12)Cl2 in an aqueous solution of saturated polyvinyl alcohol) (PVA) was investigated by stirring purified (Ta6Cl12)Cl2 with a solution of saturated PVA (MW-50k-85k, hydrolyzed).

[3] = Protocol: An ultrapurified tantalum cluster of formula (Ta6Cl12)Cl2 (Ultra Purified Ta Ta:TaCl5=1.2) was dissolved in water at a concentration of 355 mM, and in ethylene glycol at a concentration of 592 mM. The resulting water solutions were subjected to radiography to gauge their X-ray absorption characteristics. The samples were loaded into 2 mL polypropylene screw cap tubes with a 1 cm inner diameter. These samples were imaged alongside four calibration standards: 1) aluminum step wedge, 2) polycarbonate step wedge, 3) tantalum foils from 0.0127 to 0.5 mm thick, and 4) a water dilution series containing from 0 to 100% by volume of GE Healthcare's iodinated contrast agent, Visipaque, that contains 320 mg I/mL, in the same 2 mL tubes. Images were collected on a GE Healthcare OEC 9900 Elite digital X-ray Imaging System with a Tri-mode Image Intensifier at 50 KeV with filament currents varied from 0.4 to 9.0 mA. FIG. 2 below is a characteristic image of candidate aqueous samples (first two samples from the left) from the left, marked A and B) alongside calibration samples.
FIG. 3 is imaged through 8 cm of water serving as a low X-ray energy filter and simulating an arm or leg phantom to produce clinically equivalent images. […]

Substance | Solubility in aqueous solution of saturated poly(vinyl alcohol) [1] | Cluster concentration from saturated solution, EG [2] | Cluster concentration from saturated solution, H2O [2] | Remaining soluble cluster X-ray absorption, as equivalent Visipaque calibration solution [3] | Remaining soluble cluster X-ray absorption, as equivalent tantalum foil stack thickness [3] | Cluster concentration from saturated solution, 5% EDTA [2] | Cluster concentration from saturated solution, DMSO [2]
(Ta6Cl12)Cl2 | most of the color was lost as a deep green precipitate formed | – | – | – | – | – | –
(Ta6Cl12)Cl2 [Ultra purified Ta Red] | – | 592 mM | 355 mM | ~37.5% | ~0.0889 mm | – | –
(Ta6Cl12)Cl2 [Ta Red, Ta:TaCl5=1.2] | – | – | 59 mM | – | – | 12 mM | 2 mM
